Experimental data taken from US12077503B2, “Substituted cyclic amides and their use as herbicides” (FMC CORPORATION, priority 2015, dated 2024).

Columns and labels:
Type in all cases: in vivo
[1] = test system: giant foxtail (Setaria faberii); assay: Test A preemergence; details: Setaria faberi, pre-emergence, 240 h
Procedure, shortened: (§1)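 Each rating is a visual injury score from 0 to 100 given about 10 d after treatment, judged against untreated controls kept alongside in the greenhouse. In loam soil–sand blend, seeds got a preemergence directed soil spray, while postemergence plants were 2 to 10 cm tall at spraying.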

[2] = test system: ducksalad (Heteranthera limosa); assay: Test B flooded paddy test; details: Heteranthera limosa, 250 g ai/ha, Flood; 0 to 100 scale where 0 is no effect and 100 is complete control; read-out: Ducksalad plant response rating
Procedure, shortened: (§2)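 Response scored visually against untreated controls, 0 = no effect and 100 = complete control, 13–15 d after treatment in the greenhouse. Compounds added to paddy water held 3 cm above soil surface. Treatment given at 2-leaf stage.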

[3] = test system: barnyardgrass (Echinochloa crus-galli); assay: Test B flooded paddy test; details: Echinochloa crus-galli, 250 g ai/ha, Flood; 0 to 100 scale where 0 is no effect and 100 is complete control; read-out: Barnyardgrass plant response rating
Procedure, shortened: as §2

rice (Oryra sativa) = assay: Test B flooded paddy test; details: Oryza sativa, 250 g ai/ha, Flood; 0 to 100 scale where 0 is no effect and 100 is complete control; read-out: Rice plant response rating
Procedure, shortened: as §2

[4] = test system: sedge, umbrella (small-flower umbrella sedge, Cyperus difformis); assay: Test B flooded paddy test; details: Cyperus difformis, 250 g ai/ha, Flood; 0 to 100 scale where 0 is no effect and 100 is complete control; read-out: Sedge, Umbrella plant response rating
Procedure, shortened: as §2

[5] = test system: wheat (Triticum aestivum); assay: Test A postemergence; details: Triticum aestivum, post-emergence, 240 h, postemergence, approx. 10 d
Procedure, shortened: as §1

[6] = test system: Galium (catchweed bedstraw, Galium aparine); assay: Test A postemergence; details: Galium, post-emergence, 240 h, postemergence, approx. 10 d
Procedure, shortened: as §1

[7] = test system: barnyardgrass (Echinochloa crus-galli); assay: Test A postemergence; details: Echinochloa crus-galli, post-emergence, 240 h, read-out: Plant response rating, Barnyardgrass
Procedure, shortened: as §1

[8] = test system: blackgrass (Alopecurus myosuroides); assay: Test A postemergence; details: Alopecurus myosuroides, post-emergence, 240 h, read-out: Plant response rating, Blackgrass
Procedure, shortened: as §1

[9] = test system: ragweed (common ragweed, Ambrosia elatior); assay: Test A postemergence; details: Ambrosia artemisiifolia, post-emergence, 240 h, postemergence, approx. 10 d
Procedure, shortened: as §1

corn (Zea mays) = assay: Test A postemergence; details: Zea mays, post-emergence, 240 h
Procedure, shortened: as §1

[10] = test system: giant foxtail (Setaria faberii); assay: Test A postemergence; details: Setaria faberi, post-emergence, 240 h, postemergence, approx. 10 d
Procedure, shortened: as §1

[11] = test system: ryegrass, Italian (Italian ryegrass, Lolium multiflorum); assay: Test A postemergence; details: Lolium multiflorum, post-emergence, 240 h, postemergence, approx. 10 d
Procedure, shortened: as §1

Kochia (Kochia scoparia) = assay: Test A postemergence; details: Bassia scoparia, post-emergence, 240 h, postemergence, approx. 10 d
Procedure, shortened: as §1

[12] = test system: pigweed (Amaranthus retroflexus); assay: Test A postemergence; details: Amaranthus retroflexus, post-emergence, 240 h, postemergence, approx. 10 d
Procedure, shortened: as §1

[13] = 125 g ai/ha, Postemergence, visual injury after approximately 10 d, 0 to 100 scale where 0 is no effect and 100 is complete control
[14] = 500 g ai/ha, postemergence, visual injury, 0 to 100 scale (0 no effect, 100 complete control), approx. 10 d

Cc1ccc([C@H]2CNC(=O)[C@@H]2C(=O)Nc2ccccc2F)cc1C [Compound 1033]
pest or weed control at 125 g/ha ([1]; 125 g ai/ha, Preemergence, visual injury rating after approximately 10 d, read-out: Foxtail, Giant plant response rating (0 to 100 scale, 0 is no effect, 100 is complete control)): 70% | pest or weed control at 500 g/ha ([1]; 500 g ai/ha, preemergence, visual injury rating about 10 d after treatment, 0 to 100 scale (0 no effect, 100 complete control), read-out: Foxtail, Giant plant response rating): 90% | pest or weed control at 250 g/ha [2]: 100% | pest or weed control at 250 g/ha [3]: 50% | pest or weed control at 250 g/ha (rice (Oryra sativa)): 0% | pest or weed control at 250 g/ha [4]: 0% | plant injury at 125 g/ha ([5]; 125 g ai/ha, visual injury on 0 to 100 scale (0 no effect, 100 complete control), read-out: Wheat plant response rating): 0% | plant injury at 500 g/ha ([5]; 500 g ai/ha, visual injury, 0 to 100 scale (0 no effect, 100 complete control), read-out: Plant response rating, Wheat): 0% | pest or weed control at 125 g/ha ([6]; 125 g ai/ha, visual injury on 0 to 100 scale (0 no effect, 100 complete control), read-out: Galium plant response rating): 40% | pest or weed control at 500 g/ha ([6]; 500 g ai/ha, visual injury, 0 to 100 scale (0 no effect, 100 complete control), read-out: Plant response rating, Galium): 60% | pest or weed control at 125 g/ha [7, 13]: 90% | pest or weed control at 500 g/ha [7, 14]: 90% | pest or weed control at 125 g/ha [8, 13]: 0% | pest or weed control at 500 g/ha [8, 14]: 40% | pest or weed control at 125 g/ha ([9]; 125 g ai/ha, visual injury on 0 to 100 scale (0 no effect, 100 complete control), read-out: Ragweed plant response rating): 0% | pest or weed control at 500 g/ha ([9]; 500 g ai/ha, visual injury, 0 to 100 scale (0 no effect, 100 complete control), read-out: Plant response rating, Ragweed): 30% | Corn plant response rating (crop injury, 0 = no effect, 100 = complete kill) at 125 g/ha (corn (Zea mays); [13]): 0% | Corn plant response rating (crop injury, 0 = no effect, 100 = complete kill) at 500 g/ha (corn (Zea mays); [14]): 40% | pest or weed control at 125 g/ha ([10]; 125 g ai/ha, visual injury on 0 to 100 scale (0 no effect, 100 complete control), read-out: Foxtail, Giant plant response rating): 30% | pest or weed control at 500 g/ha ([10]; 500 g ai/ha, visual injury, 0 to 100 scale (0 no effect, 100 complete control), read-out: Plant response rating, Foxtail, Giant): 80% | pest or weed control at 125 g/ha ([11]; 125 g ai/ha, visual injury on 0 to 100 scale (0 no effect, 100 complete control), read-out: Ryegrass, Italian plant response rating): 0% | pest or weed control at 500 g/ha ([11]; 500 g ai/ha, visual injury, 0 to 100 scale (0 no effect, 100 complete control), read-out: Plant response rating, Ryegrass, Italian): 20% | pest or weed control at 125 g/ha (Kochia (Kochia scoparia); 125 g ai/ha, visual injury on 0 to 100 scale (0 no effect, 100 complete control), read-out: Kochia plant response rating): 0% | pest or weed control at 500 g/ha (Kochia (Kochia scoparia); 500 g ai/ha, visual injury, 0 to 100 scale (0 no effect, 100 complete control), read-out: Plant response rating, Kochia): 0% | pest or weed control at 125 g/ha ([12]; 125 g ai/ha, visual injury on 0 to 100 scale (0 no effect, 100 complete control), read-out: Pigweed plant response rating): 0% | pest or weed control at 500 g/ha ([12]; 500 g ai/ha, visual injury, 0 to 100 scale (0 no effect, 100 complete control), read-out: Plant response rating, Pigweed): 0%
